Drawing on ChEMBL document CHEMBL3596146, “Design, synthesis, and biological evaluation of a series of alkoxy-3-indolylacetic acids as peroxisome proliferator-activated receptor γ/δ agonists” (Bioorg Med Chem, 2015), this text covers Emax and Retention_time for 30 molecules.

Series [1] addresses T1, Peroxisome proliferator-activated receptor alpha (Homo sapiens) (UniProt Q07869).
T1 sequence (whole entry): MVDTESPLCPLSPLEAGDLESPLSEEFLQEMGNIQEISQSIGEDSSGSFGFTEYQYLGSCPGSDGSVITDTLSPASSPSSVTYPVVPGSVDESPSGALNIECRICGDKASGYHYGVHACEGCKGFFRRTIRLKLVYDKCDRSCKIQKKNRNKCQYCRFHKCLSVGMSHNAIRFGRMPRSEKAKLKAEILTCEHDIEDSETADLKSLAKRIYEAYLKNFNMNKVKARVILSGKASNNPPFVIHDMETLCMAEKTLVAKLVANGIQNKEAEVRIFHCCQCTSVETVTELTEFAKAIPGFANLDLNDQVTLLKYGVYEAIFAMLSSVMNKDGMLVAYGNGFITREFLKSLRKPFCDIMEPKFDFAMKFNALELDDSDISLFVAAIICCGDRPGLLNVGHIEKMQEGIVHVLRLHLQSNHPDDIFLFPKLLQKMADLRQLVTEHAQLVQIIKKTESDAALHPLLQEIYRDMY
Description: Agonist activity at PPAR-alpha (unknown origin) expressed in CV-1 cells co-transfected with tk-PPRE-luciferase vector at 10 uM after 24 hrs by transactivation assay relative to GW7647. The series is classed as cell-based.

Series [2] has as its target T2, Peroxisome proliferator-activated receptor gamma (Homo sapiens) (UniProt P37231).
T2 sequence (whole entry): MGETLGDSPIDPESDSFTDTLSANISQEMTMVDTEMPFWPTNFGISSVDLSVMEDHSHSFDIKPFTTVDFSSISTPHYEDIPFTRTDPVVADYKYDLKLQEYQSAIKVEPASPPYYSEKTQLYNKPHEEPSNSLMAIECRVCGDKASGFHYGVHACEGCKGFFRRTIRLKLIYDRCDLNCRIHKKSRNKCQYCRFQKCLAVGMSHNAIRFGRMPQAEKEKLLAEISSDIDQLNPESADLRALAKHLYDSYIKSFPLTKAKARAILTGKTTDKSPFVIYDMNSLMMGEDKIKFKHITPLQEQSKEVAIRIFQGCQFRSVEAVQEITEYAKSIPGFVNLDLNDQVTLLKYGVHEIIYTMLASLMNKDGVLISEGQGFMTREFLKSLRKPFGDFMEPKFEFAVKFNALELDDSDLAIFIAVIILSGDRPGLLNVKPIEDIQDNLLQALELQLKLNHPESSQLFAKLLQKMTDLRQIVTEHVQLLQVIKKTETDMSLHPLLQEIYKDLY
Description: Agonist activity at PPAR-gamma (unknown origin) expressed in CV-1 cells co-transfected with tk-PPRE-luciferase vector at 10 uM after 24 hrs by transactivation assay relative to rosiglitazone. It counts as cell-based.

For series [3], the target named is T3, Peroxisome proliferator-activated receptor delta (Homo sapiens) (UniProt Q03181).
T3 sequence (whole entry): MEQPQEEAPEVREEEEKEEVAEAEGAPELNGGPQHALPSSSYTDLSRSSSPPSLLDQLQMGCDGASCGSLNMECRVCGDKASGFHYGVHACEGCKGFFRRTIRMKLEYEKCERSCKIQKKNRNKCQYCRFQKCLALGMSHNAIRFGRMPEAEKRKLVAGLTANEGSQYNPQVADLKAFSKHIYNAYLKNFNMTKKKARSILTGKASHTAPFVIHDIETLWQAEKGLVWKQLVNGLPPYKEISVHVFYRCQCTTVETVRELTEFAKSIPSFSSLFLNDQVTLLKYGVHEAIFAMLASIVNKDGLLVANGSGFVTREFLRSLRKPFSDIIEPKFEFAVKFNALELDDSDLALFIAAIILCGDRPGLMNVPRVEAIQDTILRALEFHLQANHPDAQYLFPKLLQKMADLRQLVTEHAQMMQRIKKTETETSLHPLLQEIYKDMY
Description: Agonist activity at PPAR-delta (unknown origin) expressed in HEK293t cells co-transfected with tk-PPRE-luciferase vector at 10 uM after 24 hrs by transactivation assay relative to GW0742. It counts as cell-based. The note with it: HEK-293T.

Series [4] in a line: Retention time of the compound by HPLC analysis. The series is classed as physicochemical.

Calls of active or inactive are those of the source. The calls are words filed in the database; no cut-off is given here.

Take `O=C(O)Cc1cn(Cc2ccccc2)c2cc(OCCCOc3cccc(OCc4ccc(Cl)cc4)c3)ccc12`: the Emax in series [1] came out at 34.8%; in series [2] it was 122%; in series [3], 84.8%. The same molecule displayed a Retention_time in series [4] of 18.802 min.

`O=C(O)Cc1c[nH]c2ccc(OCCCOc3cccc(Oc4ccc(C(F)(F)F)cc4)c3)cc12`: the Emax is 61.1% in series [1], 119% in series [2] and 43.2% in series [3]. Moreover, the Retention_time in series [4] came out at 9.685 min.

Take `O=C(O)Cc1cn(Cc2ccccc2)c2ccc(OCCCOc3cccc(OCc4ccc(C(F)(F)F)cc4)c3)cc12`: the Emax in series [1] stood at 12.2%; in series [2], 77.9%; in series [3], 87.4%. The molecule further had a Retention_time in series [4] of 24.08 min.

As for `Cc1ccc(COc2cccc(OCCCOc3ccc4c(c3)c(CC(=O)O)cn4Cc3ccccc3)c2)cc1`, the results for the Emax in series [1], in series [2] and in series [3] were 31.4%, 109% and 83%, respectively. In series [4], this molecule showed a Retention_time of 21.719 min.

On to `O=C(O)Cc1c[nH]c2ccc(OCCCOc3cccc(Oc4ccc(Cl)cc4)c3)cc12`, for which the Emax in series [1] worked out at 59.2%; in series [2], 106%; in series [3], 37.9%. Also, the Retention_time in series [4] is 9.322 min.

Consider `Cc1cccc(OCCOc2ccc3c(c2)c(CC(=O)O)cn3Cc2ccccc2)c1`, for which the values for the Emax in series [1], in series [2] and in series [3] were 10.9%, 36.5% and 13.2%, respectively. This molecule also yielded a Retention_time in series [4] of 8.19 min.

With `O=C(O)Cc1cn(Cc2ccccc2)c2ccc(OCCOc3cccc(Cl)c3)cc12`, the Emax in series [1] amounted to 15.3%; in series [2], 23.6%; in series [3] it was 13.7%. Further, in series [4], the Retention_time was 8.911 min.

In the case of `Cc1ccc(Oc2cccc(OCCCOc3ccc4[nH]cc(CC(=O)O)c4c3)c2)cc1`, the Emax in series [1] was 60.6%; in series [2], 145%; in series [3], 40.6%. Moreover, the Retention_time in series [4] is on record as 9.409 min.

Turning to `O=C(O)Cc1cn(Cc2ccccc2)c2ccc(OCCCOc3ccc(OCc4ccc(Cl)cc4)cc3)cc12`, the Emax in series [1] worked out at 19%; in series [2], 83.7%; in series [3], 94.7%. Besides, in series [4], the Retention_time turned out to be 22.989 min.

As for `O=C(O)Cc1cn(Cc2ccccc2)c2ccc(OCCCOc3cccc(Oc4ccc(Cl)cc4)c3)cc12`, the Emax in series [1] turned out to be 34%; in series [2], 99.8%; in series [3], 88.8%. The molecule also showed a Retention_time in series [4] of 25.456 min.

On to `O=C(O)Cc1cn(Cc2ccccc2)c2ccc(OCCCOc3cccc(Oc4ccccc4)c3)cc12`, for which the Emax in series [1] is 13.9%; in series [2], 71.2%; in series [3], 46.3%. The molecule further came in with a Retention_time in series [4] of 18.216 min.

With `O=C(O)Cc1c[nH]c2ccc(OCCOc3cccc(OCc4ccc(Cl)cc4)c3)cc12`, the Emax was 42.8% in series [1], 79.6% in series [2] and 79% in series [3]. In series [4], this molecule displayed a Retention_time of 7.623 min.

On to `O=C(O)Cc1cn(Cc2ccccc2)c2ccc(OCCCOc3cccc(OCc4ccc(F)cc4)c3)cc12`, for which the Emax in series [1] was determined as 16.5%; in series [2] it was 77.7%; in series [3], 59.5%. In series [4], the Retention_time was 16.467 min.

With `O=C(O)Cc1cn(Cc2ccccc2)c2ccc(OCCCOc3cccc(OCc4ccccc4)c3)cc12`, the Emax in series [1] is 30.4%; in series [2], 94.6%; in series [3], 95.5%. Moreover, in series [4], the Retention_time stood at 14.199 min.

`Cc1ccc(COc2cccc(OCCCOc3ccc4c(CC(=O)O)c[nH]c4c3)c2)cc1`: the Emax in series [1] came out at 23.4%; in series [2] it was 84.3%; in series [3], 37.2%. The same molecule returned a Retention_time in series [4] of 9.005 min.

Take `O=C(O)Cc1c[nH]c2ccc(OCCCOc3cccc(OCc4ccccc4)c3)cc12`: the Emax is 22.6% in series [1], 73.1% in series [2] and 21.7% in series [3]. In series [4], this molecule had a Retention_time of 6.379 min.

With `COc1ccc(Oc2cccc(OCCCOc3ccc4[nH]cc(CC(=O)O)c4c3)c2)cc1`, the Emax in series [1] was 45%; in series [2], 89.7%; in series [3], 25.6%. In series [4], this molecule had a Retention_time of 6.53 min.

On to `O=C(O)Cc1c[nH]c2ccc(OCCCOc3cccc(OCc4ccc(C(F)(F)F)cc4)c3)cc12`, for which the Emax in series [1] stood at 28.2%; in series [2], 100%; in series [3] it was 71.9%. This molecule displayed a Retention_time in series [4] of 9.707 min.

Take `O=C(O)Cc1c[nH]c2ccc(OCCOc3cccc(OCc4ccc(C(F)(F)F)cc4)c3)cc12`: the Emax in series [1] turned out to be 43%; in series [2], 103%; in series [3], 83%. In addition, the Retention_time in series [4] came to 7.193 min.

Take `COc1ccc(COc2cccc(OCCOc3ccc4[nH]cc(CC(=O)O)c4c3)c2)cc1`: the Emax in series [1] turned out to be 87.5%; in series [2] it was 93.4%; in series [3] it was 70%. This molecule also yielded a Retention_time in series [4] of 5.651 min.

For `CC(C)=CCn1cc(CC(=O)O)c2cc(OCCCOc3cccc(OCc4ccc(Cl)cc4)c3)ccc21`, the Emax worked out at 37.9% in series [1], 120% in series [2] and 65.2% in series [3]. Further, the Retention_time in series [4] is listed as 30.169 min.

For `Cc1ccc(COc2ccc(OCCCOc3ccc4c(c3)c(CC(=O)O)cn4Cc3ccccc3)cc2)cc1`, the values for the Emax in series [1], in series [2] and in series [3] were 18.9%, 92.6% and 93.6%, respectively. Moreover, in series [4], the Retention_time is reported as 21.33 min.

Regarding `COc1ccc(Oc2cccc(OCCCOc3ccc4c(c3)c(CC(=O)O)cn4Cc3ccccc3)c2)cc1`, the Emax in series [1] was 22.3%; in series [2], 71.1%; in series [3], 59.5%. The Retention_time in series [4] amounted to 7.257 min.

In the case of `C=CCn1cc(CC(=O)O)c2cc(OCCCOc3cccc(OCc4ccc(Cl)cc4)c3)ccc21`, the results for the Emax in series [1], in series [2] and in series [3] were 35.8%, 104% and 71.1%, respectively. Moreover, the Retention_time in series [4] was 15.057 min.

As for `O=C(O)Cc1c[nH]c2ccc(OCCCOc3ccc(OCc4ccc(Cl)cc4)cc3)cc12`, the Emax stood at 18.9% in series [1], 99.4% in series [2] and 89.5% in series [3]. The same molecule came in with a Retention_time in series [4] of 9.166 min.

With `Cc1ccc(COc2cccc(OCCOc3ccc4[nH]cc(CC(=O)O)c4c3)c2)cc1`, the Emax was determined as 66.7% in series [1], 114% in series [2] and 76.6% in series [3]. The Retention_time in series [4] was determined as 7.375 min.

In the case of `O=C(O)Cc1c[nH]c2ccc(OCCCOc3cccc(OCc4ccc(F)cc4)c3)cc12`, the Emax in series [1] came out at 25.8%; in series [2] it was 66.9%; in series [3] it was 32%. This molecule showed a Retention_time in series [4] of 7.106 min.

As to `Cc1ccc(Oc2cccc(OCCCOc3ccc4c(c3)c(CC(=O)O)cn4Cc3ccccc3)c2)cc1`, the Emax is 33.3% in series [1], 119% in series [2] and 69.1% in series [3]. The Retention_time in series [4] worked out at 23.472 min.

With `O=C(O)Cc1c[nH]c2ccc(OCCCOc3ccccc3OCc3ccc(Cl)cc3)cc12`, the Emax in series [1] was found to be 21%; in series [2], 16.1%. For the same molecule, the Emax result in series [3] is “inactive”. For the same molecule, the Retention_time in series [4] is on record as 7.547 min.

As to `O=C(O)Cc1c[nH]c2cc(OCCCOc3cccc(OCc4ccc(Cl)cc4)c3)ccc12`, the Emax in series [1] came out at 33%; in series [2], 81.8%; in series [3], 32.8%. For the same molecule, in series [4], the Retention_time came out at 8.836 min.
